Results reported in the supplement of paper PMC10307832.

Key:
Test in all cases: relative viability (nuclei count vs DMSO), 5 days (fraction); higher = more cells survive
NCI-H1437 = tested on: NCI-H1437
Summary of the method: (§1)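 Cells from lung cancer lines were seeded into 1536-well plates and, one day later, dosed by pin tool. Treatments were either a single drug or a fixed dose of an anchor drug with five library-drug doses (not always all listed) in √10 steps. After 5 days, nuclei were stained in a one-step fixation (final 0.05% Triton X-100, 1% formaldehyde, 1 ug/ml Hoechst) and counted on 4× images, and relative viability is the treated-to-vehicle nuclei ratio, as the median of duplicate plates.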

A-427 = tested on: A-427
Summary of the method: as §1

SW 900 = tested on: SW 900
Summary of the method: as §1

NCI-H838 = tested on: NCI-H838
Summary of the method: as §1

NCI-H1975 = tested on: NCI-H1975
Summary of the method: as §1

NCI-H1666 = tested on: NCI-H1666
Summary of the method: as §1

NCI-H520 = tested on: NCI-H520
Summary of the method: as §1

HCC-15 = tested on: HCC-15
Summary of the method: as §1

SK-MES-1 = tested on: SK-MES-1
Summary of the method: as §1

COR-L 105 = tested on: COR-L 105
Summary of the method: as §1

NCI-H596 = tested on: NCI-H596
Summary of the method: as §1

HCC-827 = tested on: HCC-827
Summary of the method: as §1

COR-L23 = tested on: COR-L23
Summary of the method: as §1

EKVX = tested on: EKVX
Summary of the method: as §1

LCLC-103H = tested on: LCLC-103H
Summary of the method: as §1

NCI-H522 = tested on: NCI-H522
Summary of the method: as §1

HARA = tested on: HARA
Summary of the method: as §1

NCI-H441 = tested on: NCI-H441
Summary of the method: as §1

NCI-H23 = tested on: NCI-H23
Summary of the method: as §1

NCI-H1792 = tested on: NCI-H1792
Summary of the method: as §1

201T = tested on: 201T
Summary of the method: as §1

LK-2 = tested on: LK-2
Summary of the method: as §1

NCI-H650 = tested on: NCI-H650
Summary of the method: as §1

Question: Clc1ccc(Nc2nnc(Cc3ccncc3)c3ccccc23)cc1 [Vatalanib] + Cc1nc(Nc2ncc(C(=O)Nc3c(C)cccc3Cl)s2)cc(N2CCN(CCO)CC2)n1 [Dasatinib] (partner 0.075 µM) was tested. Which relative viability (NCI-H1437; first compound 0.04 µM) did it give?
Answer: 0.399

Question: What about the relative viability (NCI-H1437; first compound 0.1265 µM) of the same compound?
Answer: 0.41

Question: What about the relative viability (NCI-H1437; first compound 0.4 µM) of the same compound?
Answer: 0.286

Question: What about the relative viability (NCI-H1437; first compound 1.265 µM) of the same compound?
Answer: 0.349

Question: What about the relative viability (NCI-H1437; first compound 4 µM) of the same compound?
Answer: 0.417

Question: And the relative viability (A-427; first compound 0.04 µM)?
Answer: 0.784

Question: And the relative viability (A-427; first compound 0.1265 µM)?
Answer: 0.642

Question: What about the relative viability (A-427; first compound 0.4 µM) of the same compound?
Answer: 0.638

Question: And the relative viability (A-427; first compound 1.265 µM)?
Answer: 0.662

Question: And the relative viability (A-427; first compound 4 µM)?
Answer: 0.732

Question: And the relative viability (SW 900; first compound 0.1265 µM)?
Answer: 0.535

Question: What about the relative viability (SW 900; first compound 0.4 µM) of the same compound?
Answer: 0.599

Question: What about the relative viability (SW 900; first compound 1.265 µM) of the same compound?
Answer: 0.474

Question: And the relative viability (SW 900; first compound 4 µM)?
Answer: 0.417

Question: What about the relative viability (NCI-H838; first compound 0.04 µM) of the same compound?
Answer: 0.325

Question: And the relative viability (NCI-H838; first compound 0.1265 µM)?
Answer: 0.277

Question: What about the relative viability (NCI-H838; first compound 0.4 µM) of the same compound?
Answer: 0.292

Question: And the relative viability (NCI-H838; first compound 1.265 µM)?
Answer: 0.275

Question: What about the relative viability (NCI-H838; first compound 4 µM) of the same compound?
Answer: 0.273

Question: And the relative viability (NCI-H1975; first compound 0.04 µM)?
Answer: 0.356

Question: What about the relative viability (NCI-H1975; first compound 0.1265 µM) of the same compound?
Answer: 0.344

Question: And the relative viability (NCI-H1975; first compound 0.4 µM)?
Answer: 0.434

Question: What about the relative viability (NCI-H1975; first compound 1.265 µM) of the same compound?
Answer: 0.282

Question: What about the relative viability (NCI-H1975; first compound 4 µM) of the same compound?
Answer: 0.287

Question: And the relative viability (NCI-H1666; first compound 0.04 µM)?
Answer: 0.805

Question: What about the relative viability (NCI-H1666; first compound 0.1265 µM) of the same compound?
Answer: 0.714

Question: What about the relative viability (NCI-H1666; first compound 0.4 µM) of the same compound?
Answer: 0.883

Question: And the relative viability (NCI-H1666; first compound 1.265 µM)?
Answer: 0.791

Question: And the relative viability (NCI-H1666; first compound 4 µM)?
Answer: 0.758

Question: What about the relative viability (NCI-H520; first compound 0.04 µM) of the same compound?
Answer: 0.205

Question: What about the relative viability (NCI-H520; first compound 0.1265 µM) of the same compound?
Answer: 0.202

Question: What about the relative viability (NCI-H520; first compound 0.4 µM) of the same compound?
Answer: 0.218

Question: What about the relative viability (NCI-H520; first compound 1.265 µM) of the same compound?
Answer: 0.161

Question: What about the relative viability (NCI-H520; first compound 4 µM) of the same compound?
Answer: 0.126

Question: And the relative viability (HCC-15; first compound 0.04 µM)?
Answer: 0.611

Question: What about the relative viability (HCC-15; first compound 0.1265 µM) of the same compound?
Answer: 0.628

Question: What about the relative viability (HCC-15; first compound 0.4 µM) of the same compound?
Answer: 0.628

Question: And the relative viability (HCC-15; first compound 1.265 µM)?
Answer: 0.524

Question: And the relative viability (HCC-15; first compound 4 µM)?
Answer: 0.538

Question: And the relative viability (SK-MES-1; first compound 0.04 µM)?
Answer: 0.346

Question: What about the relative viability (SK-MES-1; first compound 0.1265 µM) of the same compound?
Answer: 0.439

Question: And the relative viability (SK-MES-1; first compound 0.4 µM)?
Answer: 0.32

Question: And the relative viability (SK-MES-1; first compound 1.265 µM)?
Answer: 0.348

Question: And the relative viability (SK-MES-1; first compound 4 µM)?
Answer: 0.34

Question: And the relative viability (COR-L 105; first compound 0.04 µM)?
Answer: 0.294

Question: And the relative viability (COR-L 105; first compound 0.1265 µM)?
Answer: 0.32

Question: What about the relative viability (COR-L 105; first compound 0.4 µM) of the same compound?
Answer: 0.404

Question: And the relative viability (COR-L 105; first compound 1.265 µM)?
Answer: 0.316

Question: And the relative viability (COR-L 105; first compound 4 µM)?
Answer: 0.326

Question: What about the relative viability (NCI-H596; first compound 0.04 µM) of the same compound?
Answer: 0.643

Question: What about the relative viability (NCI-H596; first compound 0.1265 µM) of the same compound?
Answer: 0.652

Question: What about the relative viability (NCI-H596; first compound 0.4 µM) of the same compound?
Answer: 0.637

Question: And the relative viability (NCI-H596; first compound 1.265 µM)?
Answer: 0.518

Question: What about the relative viability (NCI-H596; first compound 4 µM) of the same compound?
Answer: 0.592

Question: What about the relative viability (HCC-827; first compound 0.04 µM) of the same compound?
Answer: 0.375

Question: And the relative viability (HCC-827; first compound 0.1265 µM)?
Answer: 0.31

Question: And the relative viability (HCC-827; first compound 0.4 µM)?
Answer: 0.166

Question: And the relative viability (HCC-827; first compound 1.265 µM)?
Answer: 0.326

Question: And the relative viability (HCC-827; first compound 4 µM)?
Answer: 0.275

Question: And the relative viability (COR-L23; first compound 0.04 µM)?
Answer: 0.502

Question: What about the relative viability (COR-L23; first compound 0.1265 µM) of the same compound?
Answer: 0.502

Question: And the relative viability (COR-L23; first compound 0.4 µM)?
Answer: 0.651

Question: What about the relative viability (COR-L23; first compound 1.265 µM) of the same compound?
Answer: 0.414

Question: What about the relative viability (COR-L23; first compound 4 µM) of the same compound?
Answer: 0.519

Question: What about the relative viability (EKVX; first compound 0.04 µM) of the same compound?
Answer: 0.651

Question: And the relative viability (EKVX; first compound 0.1265 µM)?
Answer: 0.5

Question: And the relative viability (EKVX; first compound 0.4 µM)?
Answer: 0.585

Question: What about the relative viability (EKVX; first compound 1.265 µM) of the same compound?
Answer: 0.397

Question: What about the relative viability (EKVX; first compound 4 µM) of the same compound?
Answer: 0.4

Question: What about the relative viability (LCLC-103H; first compound 0.04 µM) of the same compound?
Answer: 0.428

Question: What about the relative viability (LCLC-103H; first compound 0.1265 µM) of the same compound?
Answer: 0.462

Question: What about the relative viability (LCLC-103H; first compound 0.4 µM) of the same compound?
Answer: 0.543

Question: What about the relative viability (LCLC-103H; first compound 1.265 µM) of the same compound?
Answer: 0.484

Question: And the relative viability (LCLC-103H; first compound 4 µM)?
Answer: 0.396

Question: And the relative viability (NCI-H522; first compound 0.04 µM)?
Answer: 0.843

Question: And the relative viability (NCI-H522; first compound 0.1265 µM)?
Answer: 0.857

Question: And the relative viability (NCI-H522; first compound 0.4 µM)?
Answer: 0.912

Question: And the relative viability (NCI-H522; first compound 1.265 µM)?
Answer: 1.04

Question: And the relative viability (NCI-H522; first compound 4 µM)?
Answer: 0.828

Question: What about the relative viability (HARA; first compound 0.04 µM) of the same compound?
Answer: 0.265

Question: And the relative viability (HARA; first compound 0.1265 µM)?
Answer: 0.214

Question: What about the relative viability (HARA; first compound 0.4 µM) of the same compound?
Answer: 0.284

Question: And the relative viability (HARA; first compound 1.265 µM)?
Answer: 0.212

Question: And the relative viability (HARA; first compound 4 µM)?
Answer: 0.248

Question: What about the relative viability (NCI-H441; first compound 0.04 µM) of the same compound?
Answer: 0.634

Question: What about the relative viability (NCI-H441; first compound 0.1265 µM) of the same compound?
Answer: 0.627

Question: And the relative viability (NCI-H441; first compound 0.4 µM)?
Answer: 0.573

Question: And the relative viability (NCI-H441; first compound 1.265 µM)?
Answer: 0.605

Question: And the relative viability (NCI-H441; first compound 4 µM)?
Answer: 0.551

Question: And the relative viability (NCI-H23; first compound 0.04 µM)?
Answer: 0.792

Question: What about the relative viability (NCI-H23; first compound 0.1265 µM) of the same compound?
Answer: 0.73

Question: And the relative viability (NCI-H23; first compound 0.4 µM)?
Answer: 0.929

Question: What about the relative viability (NCI-H23; first compound 1.265 µM) of the same compound?
Answer: 0.772

Question: What about the relative viability (NCI-H23; first compound 4 µM) of the same compound?
Answer: 0.667

Question: What about the relative viability (NCI-H1792; first compound 0.04 µM) of the same compound?
Answer: 0.724

Question: What about the relative viability (NCI-H1792; first compound 0.1265 µM) of the same compound?
Answer: 0.814

Question: And the relative viability (NCI-H1792; first compound 0.4 µM)?
Answer: 0.758

Question: And the relative viability (NCI-H1792; first compound 1.265 µM)?
Answer: 0.811

Question: What about the relative viability (NCI-H1792; first compound 4 µM) of the same compound?
Answer: 0.759

Question: What about the relative viability (201T; first compound 0.04 µM) of the same compound?
Answer: 0.576

Question: And the relative viability (201T; first compound 0.1265 µM)?
Answer: 0.564

Question: What about the relative viability (201T; first compound 0.4 µM) of the same compound?
Answer: 0.594

Question: And the relative viability (201T; first compound 1.265 µM)?
Answer: 0.555

Question: And the relative viability (201T; first compound 4 µM)?
Answer: 0.579

Question: What about the relative viability (LK-2; first compound 0.04 µM) of the same compound?
Answer: 0.322

Question: And the relative viability (LK-2; first compound 0.1265 µM)?
Answer: 0.219

Question: And the relative viability (LK-2; first compound 0.4 µM)?
Answer: 0.244

Question: And the relative viability (LK-2; first compound 1.265 µM)?
Answer: 0.27

Question: And the relative viability (LK-2; first compound 4 µM)?
Answer: 0.294

Question: And the relative viability (NCI-H650; first compound 0.04 µM)?
Answer: 0.434

Question: And the relative viability (NCI-H650; first compound 0.1265 µM)?
Answer: 0.448

Question: What about the relative viability (NCI-H650; first compound 1.265 µM) of the same compound?
Answer: 0.399

Question: And the relative viability (NCI-H650; first compound 4 µM)?
Answer: 0.434
